From US20070031511A1, “Method of treatment” (priority 2003, published 2007)
Read-outs that look alike come from different tables or passages of the source. Values belong to the compound of their own block, whether it stands above or below them. Where a SMILES comes first, the peptide text is derived from it. Where no end group is shown, it is not given here. [ ]: non-standard residue; d: D form. pGlu = O=C1CC[C@@H](C(=O)O)N1

Assays:
[1] = system: hepatoma cell lines; details: Kicic et al, 2001; cited from earlier work
[2] = system: HT29 human colorectal carcinoma cells; assay: Ggly-stimulated inositol phosphate production in HT29 cells; type: cell-based; details: HT29 cells
Protocol: (§1) Intracellular inositol phosphate production was determined as described previously (Qian et al, 1993). IMGE-5 cells (10^5 cells/ml) were plated in 24-multiwell culture plates in DMEM supplemented with 10% FBS, 200 IU/ml penicillin and 200 μg/ml streptomycin. 24 h later, cells were incubated with DMEM supplemented with antibiotics and Myo-[2-^3H]inositol (2.5 μCi/well) and shifted to 39° C. for 16 h. Cells were then washed with pre-warmed DMEM and incubated (20-30 minutes, 37° C.) with DMEM supplemented with 20 mM LiCl. Loaded cells were then washed in 1 ml of IP buffer (135 mM NaCl, 20 mM N-(2-hydroxyethyl)piperazine-N′-(2-ethanesulfonic acid), 2 mM CaCl2, 1.2 mM MgSO4, 1 mM ethylene glycol-bis(2-aminoethylether)-N,N,N′,N′-tetraacetic acid, 10 mM LiCl, and 0.5% bovine serum albumin, pH 7.45) and incubated with or without agonist in a final volume of 0.5 ml of IP buffer. After 1-h incubation at 37° C., the reaction was stopped by removing the incubation medium and adding 1 ml of a mixture of ethanol/HCl (2000:1; v/v). One ml of each aliquot was applied to a column containing 1.6 ml of a 1:2 (v/v) Dowex AG-1-X8 anion exchange resin in distilled water. The columns were washed with 4 ml of distilled water, followed by 4 ml of 40 mM HCOONH4, and inositol phosphates were eluted with 4 ml of 1 M HCOONH4. The radioactivity of each eluate was counted after addition of Complete phase combining system solution (Amersham, UK). For the positive control, IMGE-5 cells were incubated with a combination of 30 mM NaF and 10 μM AlCl3 under the same experimental conditions.
Ggly-stimulated inositol phosphate production was measured in HT29 human colorectal carcinoma cells.

[3] = target: T1, CCK-2 receptor (Homo sapiens, UniProt P32239); assay: Gamide-stimulated inositol phosphate production in COS-7 cells transfected with the CCK-2 receptor; type: cell-based; design: COS-7 cells transiently transfected with CCK-2 receptor cDNA; expressed in transfected cells; host or cells: COS-7; details: for Stimulation of inositol phosphate production: 10 nM peptide
T1 sequence (P32239 1-447): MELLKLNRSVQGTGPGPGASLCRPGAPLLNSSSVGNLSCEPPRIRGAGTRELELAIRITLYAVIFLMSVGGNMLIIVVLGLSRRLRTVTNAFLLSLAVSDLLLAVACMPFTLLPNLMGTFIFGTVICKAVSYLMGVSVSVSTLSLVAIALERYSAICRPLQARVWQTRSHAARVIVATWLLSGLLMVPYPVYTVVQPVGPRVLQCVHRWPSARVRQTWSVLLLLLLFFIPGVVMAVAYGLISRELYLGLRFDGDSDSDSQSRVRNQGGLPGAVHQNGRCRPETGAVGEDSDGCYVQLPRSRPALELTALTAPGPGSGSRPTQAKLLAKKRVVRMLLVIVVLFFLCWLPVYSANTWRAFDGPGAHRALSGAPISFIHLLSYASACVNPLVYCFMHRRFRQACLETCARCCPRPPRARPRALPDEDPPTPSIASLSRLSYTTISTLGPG
Protocol: as §1
Gamide-stimulated inositol phosphate production was measured in COS-7 cells transfected with the CCK-2 receptor. […] Bismuth ions alone had no effect on inositol phosphate production in CCK-2 receptor-transfected COS-7 cells and HT29 cells, even at the highest concentration tested.
We then investigated the role of the individual glutamates in biological activity. The effects of the mutants GamideE7A and GamideE8,9A on inositol phosphate production in COS-7 cells transiently transfected with the CCK-2 receptor were compared.

[4] = Quenching of peptide tryptophan fluorescence by ferric ions (stoichiometry, apparent Kd); type: binding; details: pH 4.0; mean ± S.E.; read-out: Kd (μM) of ferric ion binding (amidated gastrin17 and related peptides)
Protocol: The tryptophan fluorescence of peptide solutions was measured in 3 mL quartz cuvettes thermostated at […], with a Spex Fluorolog-2 spectrofluorimeter (Spex Industries, Edison, N.J.), with the excitation and emission wavelengths set at 290 and 345 nm, respectively. The quenching of tryptophan fluorescence induced by the binding of metal ions was used to calculate the fraction of binding sites occupied, fa: fa=(yf−y)/(yf−yb) where y is the fluorescence signal at a given concentration of metal ions and yb and yf are the signals when the binding sites are fully occupied and unoccupied, respectively (Winzor et al, 1995). The stoichiometry, p, and apparent dissociation constant, Kd, were then obtained, using the program Sigmastat (Jandel Scientific, San Rafael, Calif.), from the intercept and slope of a linear regression of the data transformed as described by Winzor and Sawyer (1995) in terms of the equation Cs/fa=pCa+Kd/(1−fa) where Cs is the total concentration of metal ions, and Ca is the total concentration of glycine-extended gastrin17. For the bismuth binding studies, the data was fitted by non-linear regression with the program Sigmaplot (Jandel Scientific, San Rafael, Calif.) to the equations for models with one binding site or two binding sites with identical affinities: fa=x/(Kd1+x) or to the model with two binding sites with different affinities: fa=(Kd1·x+Kd2·x+2x^2)/2(Kd1·Kd2+Kd1·x+Kd2·x+x^2) where x is the concentration of free metal ions, Kd1 is the first site dissociation constant and Kd2 is the second site dissociation constant. For the one-site model the value of x at any given total concentration of metal ions was obtained by exact solution of the appropriate quadratic (Malby et al, 2001). For the two-site models the value of x was obtained by an iterative Newton-Raphson procedure (Linse et al, 1991). Absorption Spectroscopy
The tryptophan fluorescence of progastrin6-80, glycine-extended gastrin17 and related peptides was measured in the presence of increasing concentrations of ferric ions in 10 mM sodium acetate, pH 4.0, 100 mM NaCl, 0.005% Tween 20. […] Values from the indicated number of independent experiments were combined to obtain the mean values (±S.E.) presented above. No binding of ferric ions to Ggly1-4 or Ggly12-18 was observed.
The tryptophan fluorescence of amidated gastrin17 and related peptides was measured in the presence of increasing concentrations of ferric ions at pH 4.0 (8). Values of the stoichiometry and the apparent dissociation constant (Kd) were obtained from linear transformations of the data presented in FIG. 20A by least squares fitting. Values from the indicated number of independent experiments were combined to obtain the mean values (±S.E.) presented above.

[5] = target: T1, CCK-2 receptor; assay: [125I]-BH-CCK8 displacement, CCK-2 receptor on Jurkat cells; type: binding; details: for Ratio IC50 mutant/IC50 Gamide: T-lymphoblastoid Jurkat cells; for % Maximum Binding (Jurkat): binding in the absence of competitor, fitted, mean ± S.E.
Protocol: (§2) Non-specific binding was evaluated with […] of unlabelled CCK8. Incubation was stopped by adding 2 ml of ice-cold PBS containing 2% bovine serum albumin. After centrifugation, supernatants were removed and the radioactivity bound to the cell membranes was measured in a γ-counter (LKB, Wallac, Finland).

[6] = target: T1, CCK-2 receptor; assay: [125I]-BH-CCK8 displacement, CCK-2 receptor on transiently transfected COS-7 cells; type: binding; design: COS-7 cells transiently transfected with CCK-2 receptor cDNA; expressed in transfected cells; host or cells: COS-7; details: for % Maximum Binding (COS-7): binding in the absence of competitor, fitted, mean ± S.E.; for Predicted ordinate intercept, FIG. 21: single experiment; for Ratio IC50 mutant/IC50 Gamide: transfected COS-7 cells
Protocol: as §2
The lines of best fit shown in FIG. 21 were obtained by nonlinear regression to a single site model with the program Sigmaplot.

[7] = system: IMGE-5 cells; assay: IMGE-5 cell proliferation, MTT assay; type: cell-based, mice
Protocol: The IMGE-5 cell line was established from the gastric mucosa of mice transgenic for a temperature-sensitive mutant of the SV40 large T antigen (Hollande et al, 2001). IMGE-5 cells were generally grown at 33° C. in DMEM containing 1 unit/ml γ-interferon, 10% FBS, 100 U/ml penicillin, and 100 μg/ml streptomycin (permissive conditions). For all experiments, cells were transferred to 39° C. in the same medium without […] (non-permissive conditions), where they display differentiated characteristics such as expression of functional adherens and tight junctions. All experiments have been performed on cells between passages 20 and 35.
A colorimetric assay was used to measure cell proliferation. Briefly, IMGE-5 cells were seeded in a 96-well plate at a density of 10^4 cells/well in DMEM containing 10% FBS and antibiotics. The following day, cells were synchronized in Go by incubation for 24 h in the same medium lacking FBS. The medium was replaced the next day with fresh medium containing 1% FBS and antibiotics and the peptides under investigation, and incubation was continued for 72 h. 15 μl of 5 mg/ml 3-(4,5-dimethylthiazol-2-yl)-2-5-diphenyltetrazolium bromide (MTT, Sigma, St Louis Mo.) was added per well, and the plate was incubated at 37° C. for 4 h before the medium was discarded. 200 μl 40 mM HCl in isopropanol was added to lyse the cells, and the absorbance at 570 nm was read on a BioRad Model 550 Microplate reader (BioRad, Hercules, Calif.).

[8] = pH 4.0; Ref. 8 given in table; read-out: Kd (μM), apparent dissociation constant for ferric ions; cited from earlier work

Compound: Cc1c(O)c(=O)ccn1C [1,2-dimethyl-3-hydroxypyridin-4-one]
Inhibition of proliferation of hepatoma cell lines in vitro [1]: effective inhibitors

Increase in inositol phosphate production ([3]; COS-7 cells transfected with the CCK-2 receptor, 10 μM AlF4−, 10 nM Gamide): 5 fold
Compound: [F][Al-]([F])([F])[F] [AlF4^−]
Increase in inositol phosphate production [2]: 2.6 fold

Compound: O=C(O)CN(CCN(CC(=O)O)CC(=O)O)CCN(CC(=O)O)CC(=O)O [DTPA, diethylene triamine pentaacetic acid]
Inhibition of proliferation of hepatoma cell lines in vitro [1]: the best inhibitor of all those tested

Compound: O=C(O)CN(CCN(CC(=O)O)CC(=O)O)CC(=O)O [EDTA, ethylene diamine tetraacetic acid]
Inhibition of proliferation of hepatoma cell lines in vitro [1]: ineffective

Kd [4]: 0.17 ± 0.03 µM
Ratio IC50 mutant/IC50 Gamide [5]: 2.4
% Maximum Binding (Jurkat) [5]: 96.7 ± 4.6%
% Maximum Binding (COS-7) [6]: 92.0 ± 1.0%
Predicted ordinate intercept, FIG. 21 [6]: 91.6%
Ratio IC50 mutant/IC50 Gamide [6]: 1.4
Compound: CSCC[C@H](NC(=O)[C@H](Cc1c[nH]c2ccccc12)NC(=O)CNC(=O)[C@H](Cc1ccc(O)cc1)NC(=O)[C@H](C)NC(=O)[C@H](CCC(=O)O)NC(=O)[C@H](CCC(=O)O)NC(=O)[C@H](CCC(=O)O)NC(=O)[C@H](C)NC(=O)[C@H](CCC(=O)O)NC(=O)[C@H](CC(C)C)NC(=O)[C@H](Cc1c[nH]c2ccccc12)NC(=O)[C@@H]1CCCN1C(=O)CNC(=O)[C@@H]1CCC(=O)N1)C(=O)N[C@@H](CC(=O)O)C(=O)N[C@@H](Cc1ccccc1)C(N)=O [GamideE7A] ([pGlu]GPWLEAEEEAYGWMDF-NH2)
Stimulation of inositol phosphate production [3]: No significant difference was observed in the extent of stimulation

Kd [4]: 0.16 ± 0.06 µM
Ratio IC50 mutant/IC50 Gamide [5]: 2.2
% Maximum Binding (Jurkat) [5]: 97.8 ± 9.0%
% Maximum Binding (COS-7) [6]: 98.4 ± 2.1%
Predicted ordinate intercept, FIG. 21 [6]: 91.0%
Ratio IC50 mutant/IC50 Gamide [6]: 4.1
Compound: CSCC[C@H](NC(=O)[C@H](Cc1c[nH]c2ccccc12)NC(=O)CNC(=O)[C@H](Cc1ccc(O)cc1)NC(=O)[C@H](C)NC(=O)[C@H](CCC(=O)O)NC(=O)[C@H](C)NC(=O)[C@H](C)NC(=O)[C@H](CCC(=O)O)NC(=O)[C@H](CCC(=O)O)NC(=O)[C@H](CC(C)C)NC(=O)[C@H](Cc1c[nH]c2ccccc12)NC(=O)[C@@H]1CCCN1C(=O)CNC(=O)[C@@H]1CCC(=O)N1)C(=O)N[C@@H](CC(=O)O)C(=O)N[C@@H](Cc1ccccc1)C(N)=O [GamideE8, 9A] ([pGlu]GPWLEEAAEAYGWMDF-NH2)
Stimulation of inositol phosphate production [3]: No significant difference was observed in the extent of stimulation

Compound: Cc1ncc(CO)c(C=NNC(=O)c2ccncc2)c1O [pyridoxal isonicotinoyl hydrazone]
Inhibition of proliferation of hepatoma cell lines in vitro [1]: effective inhibitors

Compound: ZGPWLE5A ([pGlu]GPWLEEEEEA; listed as Homo sapiens) [Ggly1-11]
Stimulation of IMGE-5 cell proliferation ([7]; MTT assay, peptides shown at 1 nM (FIGS. 7A, 8A)): did increase proliferation, but to a significantly lesser extent than Ggly
Reduction of activity relative to Ggly ([7]; cell proliferation or wound healing assays (FIG. 7)): approximately 50%
Kd [8]: 1.2 ± 0.04 µM
